Laboratory results taken from US20230212121A1 (DAEGU-GYEONGBUK MEDICAL INNOVATION FOUNDATION, priority 2020, published 2023).

Legend:
Type in all cases: cell-based
[1] = biological target: T1, dopamine transporter (DAT) (Homo sapiens, UniProt Q01959); assay: Dopamine reuptake inhibition, [3H]-DA, HEK-293 cells transfected with dopamine transporter cDNA; details: for Triple reuptake inhibition (Ratio %) DAT: compound 1 μM, 20-30 nM [3H]-DA, relative to control without compound = 100%, lower value = more inhibition; for IC50: concentration at which Ratio % is 50%, 6 concentrations 1 nM to 1 μM, read-out: Triple reuptake inhibition (IC50, μM) DAT
T1 construct: expressed in transfected cells; host or cells: HEK-293
T1 sequence (Q01959 whole entry, species assumed): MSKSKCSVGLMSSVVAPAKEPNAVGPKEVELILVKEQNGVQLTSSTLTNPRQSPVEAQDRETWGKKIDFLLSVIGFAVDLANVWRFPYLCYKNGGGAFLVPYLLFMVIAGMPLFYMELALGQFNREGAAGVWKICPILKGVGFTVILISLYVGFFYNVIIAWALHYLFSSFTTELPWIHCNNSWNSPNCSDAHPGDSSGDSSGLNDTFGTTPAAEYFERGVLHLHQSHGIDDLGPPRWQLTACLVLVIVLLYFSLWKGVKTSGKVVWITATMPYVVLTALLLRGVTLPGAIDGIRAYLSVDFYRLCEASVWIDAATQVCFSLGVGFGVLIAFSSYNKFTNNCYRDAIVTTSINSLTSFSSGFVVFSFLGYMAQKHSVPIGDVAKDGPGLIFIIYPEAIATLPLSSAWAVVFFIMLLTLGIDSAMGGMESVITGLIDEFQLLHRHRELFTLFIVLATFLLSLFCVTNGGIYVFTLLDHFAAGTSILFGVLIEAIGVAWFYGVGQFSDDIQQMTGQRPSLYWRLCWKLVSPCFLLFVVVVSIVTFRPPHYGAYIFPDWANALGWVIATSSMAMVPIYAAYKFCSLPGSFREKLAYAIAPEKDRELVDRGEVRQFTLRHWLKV
Protocol: (§1) In order to evaluate the reuptake inhibitory effect of the compounds of the Examples according to the present invention on serotonin, norepinephrine and dopamine, the experiments below were performed, and the results are shown in Table 17.
(§2) To evaluate the reuptake inhibition effect on dopamine, the dopamine transporter cDNA was transfected using the HEK-293 cell line, and then sub-seeded in a 24 well plate the next day. After removing the medium, each compound of the Examples or Comparative Examples diluted to 1 μM in uptake buffer was added to a concentration of 200 μl/well and cultured at 37° C. for 15 minutes. 100 μl of uptake buffer containing 20-30 nM [3H]-DA was added and cultured at 37° C. for 5 minutes. The reaction solution was quickly removed and washed three times with 1 ml ice-cold uptake buffer. After dissolving the resultant in 1% SDS (0.5 ml), the degree of binding of radioisotope-labeled dopamine to the transporter was measured.
(§3) In addition, when evaluating the reuptake inhibitory effect on dopamine, norepinephrine, and serotonin, the same method was performed without treating each compound of the Examples or Comparative Examples as a control, the degree of binding of radioisotope-labeled dopamine, norepinephrine, and serotonin to the transporter was measured, and by using this as a reference (100%), the triple reuptake inhibitory effect was evaluated as a relative ratio (Ratio %). That is, in the control group, the binding of dopamine, norepinephrine, and serotonin to transporters is not inhibited, but when each compound of the Examples is treated and thus the binding is inhibited, the Ratio % value decreases.
(§4) Meanwhile, the Ratio % values were compared, and in the case of the compounds of Examples 6, 10, 13, 14, 17, 20, 21, 22, 30, 31, 32, 34, 36, 38, 39, 40, 54, 55, 56, 57, 58 and 73 with excellent reuptake inhibitory effects on dopamine, norepinephrine and serotonin, the concentration at which the Ratio % is 50% was calculated using a total of 6 concentrations (1 nM, 5 nM, 10 nM, 50 nM, 100 nM, and 1 μM) and expressed as IC50.

[2] = biological target: T2, serotonin transporter (SERT) (Homo sapiens, UniProt P31645); assay: Serotonin reuptake inhibition, [3H]-5-HT, HEK-293 cells transfected with 5-HT transporter cDNA; details: for Triple reuptake inhibition (Ratio %) SERT: compound 1 μM, [3H]-5-HT, relative to control without compound = 100%, lower value = more inhibition; for IC50: concentration at which Ratio % is 50%, 6 concentrations 1 nM to 1 μM, read-out: Triple reuptake inhibition (IC50, μM) SERT
T2 construct: expressed in transfected cells; host or cells: HEK-293
T2 sequence (P31645 whole entry, species assumed): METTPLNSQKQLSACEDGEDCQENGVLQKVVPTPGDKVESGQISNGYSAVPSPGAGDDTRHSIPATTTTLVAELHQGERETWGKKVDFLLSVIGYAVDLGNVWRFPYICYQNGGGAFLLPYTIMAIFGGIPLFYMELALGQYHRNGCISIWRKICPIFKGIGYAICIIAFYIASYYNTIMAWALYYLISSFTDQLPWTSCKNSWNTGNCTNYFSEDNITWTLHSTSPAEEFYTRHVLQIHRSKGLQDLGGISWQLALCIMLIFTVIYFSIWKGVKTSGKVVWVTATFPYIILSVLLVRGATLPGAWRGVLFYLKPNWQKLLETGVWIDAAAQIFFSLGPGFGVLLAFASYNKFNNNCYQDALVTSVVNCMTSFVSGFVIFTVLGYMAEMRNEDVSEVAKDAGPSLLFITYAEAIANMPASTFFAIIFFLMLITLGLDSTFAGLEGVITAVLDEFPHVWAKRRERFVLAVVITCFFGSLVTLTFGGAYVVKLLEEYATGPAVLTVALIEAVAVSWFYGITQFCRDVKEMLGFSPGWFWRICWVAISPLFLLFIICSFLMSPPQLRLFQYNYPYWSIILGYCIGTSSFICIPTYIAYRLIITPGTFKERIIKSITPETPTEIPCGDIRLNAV
Protocol: as §1, §2
(§5) For norepinephrine (NE) and serotonin (5-HT), the degree of binding of radioisotope-labeled norepinephrine or serotonin to the transporter was measured in the same manner as above, except that cells transfected with NE or 5-HT transporter cDNA were used and [3H]—NE or [3H]-5-HT was used as a substrate.
as §3, §4

[3] = biological target: T3, norepinephrine transporter (NET) (Homo sapiens, UniProt P23975); assay: Norepinephrine reuptake inhibition, [3H]-NE, HEK-293 cells transfected with NE transporter cDNA; details: for Triple reuptake inhibition (Ratio %) NET: compound 1 μM, [3H]-NE, relative to control without compound = 100%, lower value = more inhibition; for IC50: concentration at which Ratio % is 50%, 6 concentrations 1 nM to 1 μM, read-out: Triple reuptake inhibition (IC50, μM) NET
T3 construct: expressed in transfected cells; host or cells: HEK-293
T3 sequence (P23975 whole entry, species assumed): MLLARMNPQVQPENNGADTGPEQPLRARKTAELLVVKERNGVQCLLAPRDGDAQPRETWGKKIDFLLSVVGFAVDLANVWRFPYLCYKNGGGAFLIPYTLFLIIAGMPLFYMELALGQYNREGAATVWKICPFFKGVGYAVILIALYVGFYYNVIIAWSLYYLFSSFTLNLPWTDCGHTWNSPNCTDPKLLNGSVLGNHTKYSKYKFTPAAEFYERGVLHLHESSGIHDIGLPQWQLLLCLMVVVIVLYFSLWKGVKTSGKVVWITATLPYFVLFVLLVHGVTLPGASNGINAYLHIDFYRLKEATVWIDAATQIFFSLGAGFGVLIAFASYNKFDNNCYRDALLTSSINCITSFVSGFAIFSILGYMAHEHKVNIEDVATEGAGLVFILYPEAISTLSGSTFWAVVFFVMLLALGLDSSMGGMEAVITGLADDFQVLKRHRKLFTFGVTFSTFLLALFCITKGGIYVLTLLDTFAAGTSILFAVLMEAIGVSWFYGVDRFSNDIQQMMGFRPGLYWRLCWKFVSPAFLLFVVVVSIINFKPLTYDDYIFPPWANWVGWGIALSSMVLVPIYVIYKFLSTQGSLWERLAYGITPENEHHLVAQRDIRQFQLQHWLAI
Protocol: as §1, §2, §5, §3, §4

| SMILES | Triple reuptake inhibition (Ratio %) DAT [1] [%] | Triple reuptake inhibition (Ratio %) SERT [2] [%] | Triple reuptake inhibition (Ratio %) NET [3] [%] | IC50 [1] [µM] | IC50 [2] [µM] | IC50 [3] [µM] |
| --- | --- | --- | --- | --- | --- | --- |
| CCCCOc1ccc(S(=O)(=O)NCCCN2CCN(c3ccc(Cl)c(Cl)c3)CC2)cc1 [Example 23, 4-butoxy-N-(3-(4-(3,4-dichlorophenyl)piperazin-1-yl)propyl)benzenesulfonamide] | 99.56 | 41.32 | 83.63 |  |  |  |
| CCCCOc1ccc(S(=O)(=O)NCCCN2CCN(c3cccc(Cl)c3Cl)CC2)cc1 [Example 24, 4-butoxy-N-(3-(4-(2,3-dichlorophenyl)piperazin-1-yl)propyl)benzenesulfonamide] | 99.30 | 60.27 | 58.70 |  |  |  |
| CCCCOc1ccc(S(=O)(=O)NCCCN2CCN(CC3CCOCC3)CC2)cc1 [Example 25, 4-butoxy-N-(3-(4-((tetrahydro-2H-pyran-4-yl)methyl)piperazin-1-yl)propyl)benzenesulfonamide] | 111.51 | 84.44 | 102.91 |  |  |  |
| CCCCOc1ccc(S(=O)(=O)NCCCN2CCN(c3cccc(C(F)(F)F)c3)CC2)cc1 [Example 26, 4-butoxy-N-(3-(4-(3-(trifluoromethyl)phenyl)piperazin-1-yl)propyl)benzenesulfonamide] | 97.83 | 50.98 | 93.31 |  |  |  |
| CCCCOc1ccc(S(=O)(=O)NCCCN2CCN(Cc3ccccc3)CC2)cc1 [Example 27, N-(3-(4-benzylpiperazin-1-yl)propyl)-4-butoxybenzenesulfonamide] | 88.17 | 76.16 | 36.89 |  |  |  |
| CCCCOc1ccc(S(=O)(=O)NCCCN2CCC(Cc3ccc(Cl)cc3)CC2)cc1 [Example 28, 4-butoxy-N-(3-(4-(4-chlorobenzyl)piperidin-1-yl)propyl)benzenesulfonamide] | 94.53 | 26.63 | 64.36 |  |  |  |
| CCCCOc1ccc(S(=O)(=O)NCCCN2CCC(Cc3ccc(C)cc3)CC2)cc1 [Example 29, 4-butoxy-N-(3-(4-(4-methylbenzyl)piperidin-1-yl)propyl)benzenesulfonamide] | 89.50 | 39.39 | 54.04 |  |  |  |
| CCCCOc1ccc(S(=O)(=O)NCCCN2CCC(Cc3ccc(OC)cc3)CC2)cc1 [Example 30, 4-butoxy-N-(3-(4-(4-methoxybenzyl)piperidin-1-yl)propyl)benzenesulfonamide] |  | 23.18 | 37.58 | 11.6 | 0.538 | 1.7 |
| CCCCOc1ccc(S(=O)(=O)NCCCN2CCC(Cc3cccc(Cl)c3)CC2)cc1 [Example 31, 4-butoxy-N-(3-(4-(3-chlorobenzyl)piperidin-1-yl)propyl)benzenesulfonamide] |  | 14.27 | 18.93 | 1.05 | 0.216 | 0.041 |
| CCCCOc1ccc(S(=O)(=O)NCCCN2CCC(Cc3ccc(F)cc3)CC2)cc1 [Example 32, 4-butoxy-N-(3-(4-(4-fluorobenzyl)piperidin-1-yl)propyl)benzenesulfonamide] | 45.64 | 30.80 | 20.42 | 2.14 | 0.386 | 0.749 |
| CCCCOc1ccc(S(=O)(=O)NCCCN2CCC(c3cccc(Cl)c3Cl)CC2)cc1 [Example 33, 4-butoxy-N-(3-(4-(2,3-dichlorophenyl)piperidin-1-yl)propyl)benzenesulfonamide] | 66.67 | 59.74 | 68.93 |  |  |  |
| O=S(=O)(NCCCN1CCC(Cc2ccccc2)CC1)c1ccc(OC(F)(F)F)cc1 [Example 34, N-(3-(4-benzylpiperidin-1-yl)propyl)-4-(trifluoromethoxy)benzenesulfonamide] | 16.35 | 57.25 | 20.03 | 0.942 | 2.59 | 0.612 |
| CCCCOc1ccc(S(=O)(=O)NCCCN2CCC(Cc3ccccc3)CC2)nc1 [Example 35, N-(3-(4-benzylpiperidinyl)propyl)-5-butoxypyridin-2-sulfonamide] | 16.12 | 53.08 | 51.99 |  |  |  |
| O=S(=O)(NCCN1CCC(Cc2ccccc2)CC1)c1cc2ccccc2[nH]1 [Example 36, N-(2-(4-benzylpiperidin-1-yl)ethyl)-1H-indol-2-sulfonamide] | 30.48 | 72.85 | 79.12 | 0.843 |  |  |
| O=S(=O)(NCCN1CCC(Cc2ccccc2)CC1)c1ccc2ccccc2c1 [Example 38, N-(2-(4-benzylpiperidin-1-yl)ethyl) naphthalen-2-sulfonamide] | 56.59 | 34.20 | 21.54 | 0.493 |  |  |
| O=S(=O)(NCCN1CCC(Cc2ccccc2)CC1)c1cccc2ccccc12 [Example 39, N-(2-(4-benzylpiperidin-1-yl)ethyl)naphthalen-1-sulfonamide] | 31.26 | 15.77 | 18.46 | 1.16 |  |  |
| O=S(=O)(NCCN1CCC(Cc2ccccc2)CC1)c1ccc(-c2ccccc2)cc1 [Example 40, N-(2-(4-benzylpiperidin-1-yl)ethyl)-[1,1′-biphenyl]-4-sulfonamide] | 41.80 | 33.23 | 33.45 | 3.92 | 3.08 | 1.05 |
| O=S(=O)(NCCN1CCC(Cc2ccccc2)CC1)c1ccc2ccccc2n1 [Example 41, N-(2-(4-benzylpiperidin-1-yl)ethyl)quinolin-2-sulfonamide] | 80.21 | 64.15 | 34.97 |  |  |  |
| O=S(=O)(NCCN1CCC(c2ccccc2)CC1)c1ccc2ccccc2c1 [Example 42, N-(2-(4-phenylpiperidin-1-yl)ethyl)naphthalen-2-sulfonamide] | 80.21 | 64.15 | 34.97 |  |  |  |
